What follows are compounds tested against MAPK14 (human) (UniProt Q16539) (assay: Inhibition of MAPK14 Kinase Activity). Details: Monocyte.
Sequence of MAPK14 (human) (Q16539 whole entry, looked up): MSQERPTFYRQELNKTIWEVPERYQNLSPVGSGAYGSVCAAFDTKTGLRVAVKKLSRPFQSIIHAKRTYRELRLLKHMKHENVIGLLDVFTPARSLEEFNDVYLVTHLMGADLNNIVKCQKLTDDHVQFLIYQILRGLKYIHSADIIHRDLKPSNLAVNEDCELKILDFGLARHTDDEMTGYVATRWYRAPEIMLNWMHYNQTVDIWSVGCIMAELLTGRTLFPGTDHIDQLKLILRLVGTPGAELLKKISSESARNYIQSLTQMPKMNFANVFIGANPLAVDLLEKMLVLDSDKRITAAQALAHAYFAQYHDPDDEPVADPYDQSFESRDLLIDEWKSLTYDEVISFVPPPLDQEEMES

IC50 [nM]	SMILES
< 1000	Cc1cc(OCc2ccc(F)cc2F)c(Br)c(=O)n1Cc1cnc(N(C)C)nc1
< 1000	Cc1cc(OCc2ccc(F)cc2F)c(Br)c(=O)n1-c1ccc(CNC(=O)C(C)(C)O)cc1
1000 to 25000	Cc1cc(OCc2ccc(F)cc2F)c(Br)c(=O)n1Cc1ccc(C(=O)NCCO)o1
< 1000	Cc1ccc(C(N)=O)cc1-n1c(C)cc(OCc2ccc(F)cc2F)c(Br)c1=O
25000 to 100000	Cc1cc(OCc2ccc(F)cc2C(N)=O)c(Br)c(=O)n1-c1c(F)cccc1F
1000 to 25000	CNC(=O)c1ccc(C(C)n2c(C)cc(OCc3ccc(F)cc3F)c(Br)c2=O)cc1 (stereo not given)
< 1000	Cc1cc(OCc2ccc(F)cc2F)c(Br)c(=O)n1Cc1cc[nH]n1

The remaining lines, values behind:

SMILES	IC50 [nM]
Cc1cc(OCc2ccc(F)cc2F)c(Br)c(=O)n1Cc1cnc(CNC(=O)CN)nc1	< 1000
Cc1cc(OCc2ccc(F)cc2F)c(Br)c(=O)n1Cc1ccc(C(=O)N2CCOCC2)o1	< 1000
Cc1cc(OCc2ccc(F)cc2F)c(Br)c(=O)n1-c1c(F)cc(/C=C/CO)cc1F	< 1000
CNCC(=O)NCc1ccc(Cn2c(C)cc(OCc3ccc(F)cc3F)c(Br)c2=O)cc1	< 1000
Cc1cc(OCc2ccc(F)cc2F)c(Br)c(=O)n1-c1ccc(C(=O)N(C)C)cc1C(F)(F)F	1000 to 25000
Cc1cc(OCc2ccc(F)cc2F)c(Cl)c(=O)n1Cc1ccc2c(c1)CN(C(=O)C(C)(C)O)C2	< 1000
Cc1cc(OCc2ccc(F)cc2F)c(Br)c(=O)n1-c1c(F)cc(C(O)COC(N)=O)cc1F (stereo not given)	< 1000
Cc1ccc(C(N)=O)cc1-n1c(C)cc(OCc2ccc(F)cc2CNC(=O)NC2CC2)c(Cl)c1=O	< 1000

Reference: the Kinase Knowledgebase extract (Sharma et al. 2016)
